“And” between values parts separate entries of the source, which are not always exact repeats. Equal entries are not always repeated.
Test: Henry solubility constant Hcp at 298.15 K (mol/(m3 Pa))
Settings: reference: Lau et al. (2006)

Clc1ccc(-c2ccccc2Cl)cc1 [2,4'-dichlorobiphenyl]
Henry solubility constant Hcp: 0.026 and 0.019

Clc1ccc(-c2ccc(Cl)cc2)cc1 [4,4'-dichlorobiphenyl]
Henry solubility constant Hcp: 0.05 and 0.033

Brc1ccc(Oc2ccc(Br)cc2)cc1 [4,4'-dibromodiphenyl ether]
Henry solubility constant Hcp: 0.083 and 0.071

Brc1ccc(Oc2cc(Br)c(Br)cc2Br)c(Br)c1 [2,2',4,4',5-pentabromodiphenyl ether]
Henry solubility constant Hcp: 0.62 and 0.33

Brc1ccc(Oc2cc(Br)c(Br)c(Br)c2Br)cc1 [2,3,4,4',5-pentabromodiphenyl ether]
Henry solubility constant Hcp: 0.62 and 0.77

Clc1ccc(-c2ccc(Cl)c(Cl)c2)cc1Cl [3,3',4,4'-tetrachlorobiphenyl]
Henry solubility constant Hcp: 0.031 and 0.018

Brc1ccc(Oc2ccc(Br)cc2Br)cc1 [2,4,4'-tribromodiphenyl ether]
Henry solubility constant Hcp: 0.11 and 0.077

Brc1ccc(Oc2ccccc2)cc1 [4-bromodiphenyl ether]
Henry solubility constant Hcp: 0.05 and 0.043

Brc1ccc(Oc2ccc(Br)cc2Br)c(Br)c1 [2,2',4,4'-tetrabromodiphenyl ether]
Henry solubility constant Hcp: 0.16 and 0.17

Clc1ccc(-c2cc(Cl)c(Cl)cc2Cl)cc1Cl [2,3',4,4',5-pentachlorobiphenyl]
Henry solubility constant Hcp: 0.011 and 0.0056

Brc1ccc(Oc2c(Br)cc(Br)cc2Br)c(Br)c1 [2,2',4,4',6-pentabromodiphenyl ether]
Henry solubility constant Hcp: 0.33 and 0.32

Clc1ccccc1-c1ccccc1 [2-chlorobiphenyl]
Henry solubility constant Hcp: 0.03 and 0.023

— Sander's compilation of Henry's law constants (doi:10.1021/je050308b)
